The values that follow come from US11535630B2, “Apelin receptor (APJ) agonists and uses thereof” (Research Triangle Institute, priority 2015, dated 2022).

This experiment addresses T1, apelin receptor (APJ) (Homo sapiens, UniProt P35414).
T1 sequence (P35414 1-380): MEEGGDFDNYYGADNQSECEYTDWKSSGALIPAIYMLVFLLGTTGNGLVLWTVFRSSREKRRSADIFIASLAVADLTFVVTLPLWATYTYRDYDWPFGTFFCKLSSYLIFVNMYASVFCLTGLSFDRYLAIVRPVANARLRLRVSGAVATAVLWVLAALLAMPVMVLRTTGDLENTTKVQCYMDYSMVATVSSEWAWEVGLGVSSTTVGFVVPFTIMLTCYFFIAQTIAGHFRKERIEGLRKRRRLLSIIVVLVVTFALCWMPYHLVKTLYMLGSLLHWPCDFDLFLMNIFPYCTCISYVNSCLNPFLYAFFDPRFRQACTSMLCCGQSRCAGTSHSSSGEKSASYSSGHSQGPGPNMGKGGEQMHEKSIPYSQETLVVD
The experiment can be described thus: In vitro apelin agonist activity (methods of Giddings et al., Apelin-13 as positive control). The experiment is classed as cell-based. Particulars: in vitro apelin agonist activity, methods of Giddings et al., Apelin-13 as positive control; read-out: EC50 (nM) Ave. The text has this:
Characterization of the Apelin Agonist Activity of the Compounds
1:39-47, the contents of which are hereby incorporated by reference in its entirety. Using the methods described in Giddings et al. and Apelin-13 as a positive control.
A word on the EC50: it is the midpoint of the concentration-response curve. In the case of `CCCn1nc(C(=O)N[C@@H](CCN2CCCC(F)(F)C2)CC(=O)O)cc1-c1ccccc1C(F)(F)F` [compound 580, (3S)-5-(3,3-difluoropiperidin-1-yl)-3-({1-propyl-5-[2-(trifluoromethyl)phenyl]-1H-pyrazol-3-yl}formamido)pentanoic acid], the EC50 amounted to 718 nM.

`O=C(O)C[C@H](CCN1C[C@@H](F)[C@@H](F)C1)NC(=O)c1cc(-c2ccccc2C(F)(F)F)n(C2CCCC2)n1` [compound 581, (3S)-3-({1-cyclopentyl-5-[2-(trifluoromethyl)phenyl]-1H-pyrazol-3-yl}formamido)-5-[(3R,4S)-3,4-difluoropyrrolidin-1-yl]pentanoic acid]: the EC50 came out at 215 nM.

Regarding `O=C(O)C[C@H](CCN1C[C@H](F)[C@@H](F)C1)NC(=O)c1cc(-c2ccccc2C(F)(F)F)n(C2CCCC2)n1` [compound 582, (3S)-3-({1-cyclopentyl-5-[2-(trifluoromethyl)phenyl]-1H-pyrazol-3-yl}formamido)-5-[(3S,4S)-3,4-difluoropyrrolidin-1-yl]pentanoic acid], the EC50 was determined as 109 nM.

On to `O=C(O)C[C@H](CCN1CCC[C@H](F)C1)NC(=O)c1cc(-c2ccccc2C(F)(F)F)n(C2CCCC2)n1` [compound 583, (3S)-3-({1-cyclopentyl-5-[2-(trifluoromethyl)phenyl]-1H-pyrazol-3-yl}formamido)-5-[(3S)-3-fluoropiperidin-1-yl]pentanoic acid], for which the EC50 was determined as 302 nM.

Consider `O=C(O)C[C@H](CCN1CCC[C@@H](F)C1)NC(=O)c1cc(-c2ccccc2C(F)(F)F)n(C2CCCC2)n1` [compound 584, (3S)-3-({1-cyclopentyl-5-[2-(trifluoromethyl)phenyl]-1H-pyrazol-3-yl}formamido)-5-[(3R)-3-fluoropiperidin-1-yl]pentanoic acid], for which the EC50 amounted to 184 nM.

`O=C(O)C[C@H](CCN1CC[C@H](F)C1)NC(=O)c1cc(-c2ccccc2C(F)(F)F)n(C2CCCC2)n1` [compound 585, (3S)-3-({1-cyclopentyl-5-[2-(trifluoromethyl)phenyl]-1H-pyrazol-3-yl}formamido)-5-[(3S)-3-fluoropyrrolidin-1-yl]pentanoic acid]: the concentration giving a half-maximal response (EC50) stood at 654 nM.

`O=C(O)C[C@H](CCN1CCCCC1=O)NC(=O)c1cc(-c2ccccc2C(F)(F)F)n(C2CCCC2)n1` [compound 587, (3S)-3-({1-cyclopentyl-5-[2-(trifluoromethyl)phenyl]-1H-pyrazol-3-yl}formamido)-5-(2-oxopiperidin-1-yl)pentanoic acid]: the half-maximal effective concentration (EC50) was 355 nM.

As for `CC1(C)CN(CC[C@@H](CC(=O)O)NC(=O)c2cc(-c3ccccc3C(F)(F)F)n(C3CCCC3)n2)C1` [compound 588, (3S)-3-({1-cyclopentyl-5-[2-(trifluoromethyl)phenyl]-1H-pyrazol-3-yl]formamido)-5-(3,3-dimethylazetidin-1-yl)pentanoic acid], the 50% effective concentration (EC50) worked out at 502 nM.

On to `CC(F)(F)c1ccccc1-c1cc(C(=O)N[C@@H](CCN2CC(F)(F)C2)CC(=O)O)nn1C1CCCC1` [compound 589], for which the EC50 was 171 nM.

As to `O=C(O)C[C@H](CCN1CC[C@@H](F)C1)NC(=O)c1cc(-c2ccccc2C(F)(F)F)n(C2CCCC2)n1` [compound 590, (3S)-3-({1-cyclopentyl-5-[2-(trifluoromethyl)phenyl]-1H-pyrazol-3-yl]formamido)-5-[(3R)-3-fluoropyrrolidin-1-yl]pentanoic acid], the concentration for a half-maximal effect (EC50) is 1160 nM.

Take `O=C(O)C[C@H](CCN1CC2(CCC2(F)F)C1)NC(=O)c1cc(-c2ccccc2C(F)(F)F)n(C2CCCC2)n1` [compound 591, (3S)-3-({1-cyclopentyl-5-[2-(trifluoromethyl)phenyl]-1H-pyrazol-3-yl]formamido)-5-{5,5-difluoro-2-azaspiro[3.3]heptan-2-yl}pentanoic acid]: the half-maximal effective concentration (EC50) was found to be 528 nM.

As to `CC(F)(F)c1ccccc1-c1cc(C(=O)N[C@@H](CCN2CCC[C@@H](F)C2)CC(=O)O)nn1C1CCCC1` [compound 593, (3S)-3-({1-cyclopentyl-5-[2-(1,1-difluoroethyl)phenyl]-1H-pyrazol-3-yl}formamido)-5-[(3R)-3-fluoropiperidin-1-yl]pentanoic acid], the half-maximal effective concentration (EC50) stood at 79 nM.

As to `CC(C[C@@H](CC(=O)O)NC(=O)c1cc(-c2ccccc2C(C)(F)F)n(C2CCCC2)n1)N1C[C@H](F)[C@@H](F)C1` (stereo partly drawn) [compound 595], the concentration for a half-maximal effect (EC50) was found to be 140 nM.

As to `C[C@H](C(=O)O)[C@H](CCN1CCCC(F)(F)C1)NC(=O)c1cc(-c2ccccc2C(F)(F)F)n(C2CCCC2)n1` [compound 596, (2S,3S)-3-({1-cyclopentyl-5-[2-(trifluoromethyl)phenyl]-1H-pyrazol-3-yl}formamido)-5-(3,3-difluoropiperidin-1-yl)-2-methylpentanoic acid], the EC50 came out at 88 nM.

Regarding `C[C@@H](C(=O)O)[C@H](CCN1CCCC(F)(F)C1)NC(=O)c1cc(-c2ccccc2C(F)(F)F)n(C2CCCC2)n1` [compound 597, (2R,3S)-3-({1-cyclopentyl-5-[2-(trifluoromethyl)phenyl]-1H-pyrazol-3-yl}formamido)-5-(3,3-difluoropiperidin-1-yl)-2-methylpentanoic acid], the 50% effective concentration (EC50) was 23 nM.

For `CC(F)(F)c1ccccc1-c1cc(C(=O)N[C@@H](CCN2C[C@@H](F)[C@@H](F)C2)CC(=O)O)nn1C1CCCC1` [compound 598, (3S)-3-({1-cyclopentyl-5-[2-(1,1-difluoroethyl)phenyl]-1H-pyrazol-3-yl}formamido)-5-[cis-3,4-difluoropyrrolidin-1-yl]pentanoic acid], the EC50 stood at 103 nM.

With `C[C@@H](C[C@@H](CC(=O)O)NC(=O)c1cc(-c2ccccc2C(C)(F)F)n(C2CCCC2)n1)N1CCC(F)(F)C1` [compound 600, (3S,5S)-3-({1-cyclopentyl-5-[2-(1,1-difluoroethyl)phenyl]-1H-pyrazol-3-yl}formamido)-5-(3,3-difluoropyrrolidin-1-yl)hexanoic acid], the concentration for a half-maximal effect (EC50) is 67 nM.

In the case of `O=C(O)C[C@H](CCN1CC(C(F)(F)F)C1)NC(=O)c1cc(-c2ccccc2C(F)(F)F)n(C2CCCC2)n1` [compound 601, (3S)-3-({1-cyclopentyl-5-[2-(trifluoromethyl)phenyl]-1H-pyrazol-3-yl]formamido)-543-(trifluoromethypazetidin-1-yl]pentanoic acid], the EC50 worked out at 128 nM.

On to `O=C(O)C[C@H](CCN1C2CCC1CC(F)(F)C2)NC(=O)c1cc(-c2ccccc2C(F)(F)F)n(C2CCCC2)n1` [compound 602, (3S)-3-({1-cyclopentyl-5-[2-(trifluoromethyl)phenyl]-1H-pyrazol-3-yl}formamido)-5-{3,3-difluoro-8-azabicyclo[3.2.1]octan-8-yl}pentanoic acid], for which the concentration for a half-maximal effect (EC50) was 346 nM.

As for `O=C(O)C[C@H](CCN1CC2C(C1)C2(F)F)NC(=O)c1cc(-c2ccccc2C(F)(F)F)n(C2CCCC2)n1` (stereo partly drawn) [compound 603, (3S)-3-({1-cyclopentyl-5-[2-(trifluoromethyl)phenyl]-1H-pyrazol-3-yl}formamido)-5-{6,6-difluoro-3-azabicyclo[3.1.0]hexan-3-yl}pentanoic acid], the EC50 is 46 nM.

Take `O=C(O)C[C@H](CCN1C(=O)CCCC1=O)NC(=O)c1cc(-c2ccccc2C(F)(F)F)n(C2CCCC2)n1` [compound 604, (3S)-3-({1-cyclopentyl-5-[2-(trifluoromethyl)phenyl]-1H-pyrazol-3-yl}formamido)-5-(2,6-dioxopiperidin-1-yl)pentanoic acid]: the EC50 was 55 nM.

`C[C@@H]1CC(F)(F)CN1CC[C@@H](CC(=O)O)NC(=O)c1cc(-c2ccccc2C(C)(F)F)n(C2CCCC2)n1` [compound 605, (3S)-3-({1-cyclopentyl-5-[2-(1,1-difluoroethyl)phenyl]-1H-pyrazol-3-yl]formamido)-5-[(2R)-4,4-difluoro-2-methylpyrrolidin-1-yl]pentanoic acid]: the EC50 turned out to be 11 nM.

In the case of `O=C(O)C[C@H](CCN1CC2CCC(C1)C2(F)F)NC(=O)c1cc(-c2ccccc2C(F)(F)F)n(C2CCCC2)n1` [compound 606, (3S)-3-({1-cyclopentyl-5-[2-(trifluoromethyl)phenyl]-1H-pyrazol-3-yl}formamido)-5-{8,8-difluoro-3-azabicyclo[3.2.1]octan-3-yl}pentanoic acid], the concentration for a half-maximal effect (EC50) came out at 310 nM.

In the case of `CC1CCC(F)(F)CN1CC[C@@H](CC(=O)O)NC(=O)c1cc(-c2ccccc2C(C)(F)F)n(C2CCCC2)n1` (stereo partly drawn) [compound 607, (3S)-3-({1-cyclopentyl-5-[2-(1,1-difluoroethyl)phenyl]-1H-pyrazol-3-yl}formamido)-5-(5,5-difluoro-2-methylpiperidin-1-yl)pentanoic acid], the 50% effective concentration (EC50) was determined as 69 nM.

For the compound `CC1(C)CC(=O)CN1CC[C@@H](CC(=O)O)NC(=O)c1cc(-c2ccccc2C(F)(F)F)n(C2CCCC2)n1` [compound 608, (3S)-3-({1-cyclopentyl-5-[2-(trifluoromethyl)phenyl]-1H-pyrazol-3-yl}formamido)-5-(2,2-dimethyl-4-oxopyrrolidin-1-yl)pentanoic acid], the EC50 is 1070 nM.

For the compound `CC1(F)CCN(CC[C@@H](CC(=O)O)NC(=O)c2cc(-c3ccccc3C(F)(F)F)n(C3CCCC3)n2)C1` (stereo partly drawn) [compound 609, (3S)-3-({1-cyclopentyl-5-[2-(trifluoromethyl)phenyl]-1H-pyrazol-3-yl}formamido)-5-(3-fluoro-3-methylpyrrolidin-1-yl)pentanoic acid], the concentration for a half-maximal effect (EC50) is 98 nM.

In the case of `O=C(O)C[C@H](CCN1CC[C@@H](F)[C@@H](F)C1)NC(=O)c1cc(-c2ccccc2C(F)(F)F)n(C2CCCC2)n1` [compound 610], the EC50 came out at 43 nM.
